# In publication PMC8333425, “Discovery of a dual Ras and ARF6 inhibitor from a GPCR endocytosis screen” (Nature Communications, 2021):
# Values joined by “and” are separate entries in the source; they are usually repeats but may differ in a detail not shown here. Identical values can stand only once.
# Tests used:
# [1] = system: ERK1/2 activation by β2AR; test: Western blot of β2AR-mediated ERK1/2 phosphorylation; assay type: cell-based, human; settings: for p-ERK1/2 over ERK1/2, normalized to basal (0 min), b2AR: Comp 21 50 μM, individual experiments
# Experimental: HEK293SL cells (10^5 cells per well) were seeded in a poly-L-lysine-coated six-well plate and transiently transfected with 3 μg Flag-AT1R, HA-B2R or HA-β2AR and/or 500 ng Flag-MEK1-WT, Flag-MEK1-DD, Flag-BRAF-WT, Flag-BRAF-V600E, Flag-K-Ras-WT, Flag-K-Ras-G12V, HA-ARF6-WT, or HA-ARF6-T27N. Gαq/11 KO and βarr1/2 KO cells were seeded onto 100 mm dishes at a density of 10^6 cells per dish. Next day, cells were transfected with 3 μg AT1R alone or along with 500 ng of β-arrestin2 using PEI. After 18 h of transfection, cells were detached and re-seeded onto poly-L-lysine coated 12-well plates (~1.5–2 × 10^5cells/well) for subsequent experiments. Forty-eight hours post transfection, in a 37 °C water bath, cells were serum-starved for 30 min, pretreated with DMSO (0.1%) or compound 21/Rasarfin (50 µM or at indicated concentrations) for 30 min, then stimulated or not with the indicated ligand [AngII (1 µM), BK (1 µM), Iso (10 µM) or EGF (100 ng/ml)] at indicated times. Cells were put on ice, washed with PBS and solubilized in 2x laemmli buffer (250 mM Tris–HCl pH 6.8, 2% SDS (w/v), 10% glycerol (v/v), 0.01% bromophenol blue (w/v) and 5% β-mercaptoethanol (v/v)) by heating at 65 °C for 15 min. Lysates were resolved on 10 or 14% SDS-PAGE, transferred to nitrocellulose membranes and immunoblotted for p-ERK1/2, ERK1/2, p-Akt, Akt, HA, Myc, β-actin or FLAG. ImageLab 5.2 software was used to quantify the digital blots as fold of the phosphorylated protein over total protein, which were then normalized as indicated in the figure legends. Uncropped immunoblots are provided in the Source Data file.
# β2AR = test: Endosomal BRET assay of isoproterenol-mediated β2AR internalization; assay type: cell-based, human
# Source text: We performed a HT campaign in HEK293 cells using the bystander endosomal BRET sensor, which consists of a Renilla luciferase (RlucII)-tagged AT1R and an acceptor renilla GFP (rGFP) anchored to endosomes through an Endofin-FYVE (Endo-rGFP) domain[12]. AngII-mediated trafficking of AT1R to endosomes was screened against commercial libraries of ~115,000 small molecules (Fig. 1a and Supplementary Data 1). Because our assay is based on luminescence and fluorescence, we excluded 6610 compounds that quenched more than 50% of the luciferase or GFP signals. After excluding 5 AT1R antagonists, we conserved hit compounds blocking by more than 40%, as well as those potentiating by more than 100% receptor internalization. From this collection of 943 compounds, a second validation on AT1R internalization was performed using the same BRET assay, as well as on the agonist-mediated B2R internalization, this time using B2R-RlucII and Endo-rGFP. Only compounds that were revalidated on AT1R and affected B2R endocytosis were kept, which included forty hits (20 potentiators and 20 inhibitors) (Fig. 1b and Supplementary Data 2). We focused on inhibitors that were commercially available at the beginning of the project and tested their cell toxicity by microscopy, looking at cells expressing B2R tagged with YFP, which highlights cell contours and potential morphological changes, such as rounding up of cells following treatment with 50 μM of the compounds that may have indicated cell death. None of the inhibitors tested caused abnormal cell morphological changes when cells were treated with compounds as compared to DMSO-treated cells. Inhibitors were also assessed in terms of structure novelty, derivatization potential, and commercial availability of analogs (within 95–98% similarity from Tanimoto metric, Sci-Finder, https://scifinder-n.cas.org), for structure-activity relationship studies (SAR). They were scored 1–5, from best to worst. We excluded compounds with potential nucleophilic reactivity (e.g., Michael addition: compounds 7, 26, and 27), those reported to have biological activities (compounds 8, 20, 25, 30, and 35) and/or showing autofluorescence (compound 26). Compound 19 ranked high, but only had one other molecule with a similar structure available. Although other molecules could be interesting in their own rights as endocytosis inhibitors (e.g., compounds 1, 9, 11, 12, 13, 24, 31, and 37), we focused on compound 21 (Fig. 1c) because not only did it rank high in our analysis, but it was also the only compound with substantially more similar analogs commercially available at the time of these investigations. In the screen and the follow-up validation assay, 21 inhibited more than 50% AT1R internalization and more than 65% B2R internalization (Supplementary Data 2). […] Because β-arrestins are critically involved in GPCR endocytosis and trafficking in cells, we assessed 21’s effects on β-arrestins’ recruitment to AT1R and B2R at the PM using a BRET assay, as well as their trafficking into endosomes by microscopy.
# HEK293SL cells were seeded at a density of 7.5 × 10^5 cells per 100-mm dish and 24 h later, transiently transfected as such. For receptor internalization experiments, cells were transfected with 0.12 μg AT1R-RlucII, B2R-RlucII, or β2AR-RlucII and 0.48 μg of either rGFP-CAAX (to assess removal from the PM) or rGFP-FYVE (to assess accumulation in the endosomes). For β-arrestin recruitment assays, cells were transfected with 0.48 μg of receptor-YFP along with 0.12 μg of β-arrestin-RlucII. For β-arrestin/AP-2 binding experiments, cells were transfected with 1 μg Flag-AT1R, 1 μg β2-Adaptin-YFP, and 0.12 μg β-arrestin2-RlucII. For G protein activation, cells were transfected with 3 μg of sp-Flag-AT1R along with either 4.5 μg of the Gαq-polycistronic BRET sensor or 0.24 μg of the Gαi3-RlucII and 0.6 μg of GFP10-Gγ2 and Gβ1 sensors or 0.12 μg PKN-RBD-RlucII and 0.48 μg of rGFP-CAAX. […]
smiles,measurement,setting,value
CC(C)C(=O)N1CCN(c2ccc(NC(=O)c3cc4ccccc4o3)cc2Cl)CC1 [Compound 21],MAPK response promoted by β2AR,[1]; 50 μM,blocked MAPK responses
same,"p-ERK1/2 over ERK1/2, normalized to basal (0 min), b2AR",[1]; time 0 min,1
same,"p-ERK1/2 over ERK1/2, normalized to basal (0 min), b2AR",[1]; time 2 min,1.344 and 1.8469 and 1.974 and 1.462
same,"p-ERK1/2 over ERK1/2, normalized to basal (0 min), b2AR",[1]; time 5 min,1.8675 and 1.745 and 1.249 and 1.487
same,IC50,"β2AR; Homo sapiens, read-out: IC50 for inhibition of isoproterenol-mediated β2AR internalization into endosomes",15 µM
same,"β2AR internalization into endosomes, ligand-promoted BRET (Mean)",β2AR; Log [Comp21] (M) -4.3,36.2133 percent compared to DMSO
same,"β2AR internalization into endosomes, ligand-promoted BRET (Mean)",β2AR; Log [Comp21] (M) -4.6,48.1993 percent compared to DMSO
same,"β2AR internalization into endosomes, ligand-promoted BRET (Mean)",β2AR; Log [Comp21] (M) -5,64.3705 percent compared to DMSO
same,"β2AR internalization into endosomes, ligand-promoted BRET (Mean)",β2AR; Log [Comp21] (M) -5.3,89.3672 percent compared to DMSO
same,"β2AR internalization into endosomes, ligand-promoted BRET (Mean)",β2AR; Log [Comp 21] (M) -6,95.9498 percent compared to DMSO
same,"β2AR internalization into endosomes, ligand-promoted BRET (Mean)",β2AR; Log [Comp21] (M) -6.3,95.3626 percent compared to DMSO
same,"β2AR internalization into endosomes, ligand-promoted BRET (Mean)",β2AR; Log [Comp 21] (M) -7,95.4832 percent compared to DMSO
